Assay results taken from article PMC5660193, “The antimalarial activity of the pantothenamide α-PanAm is via inhibition of pantothenate phosphorylation” (Scientific Reports, 2017).
Where a chain is given by its changes, count along the chain named.

Columns and labels:
Format in all cases: biochemical
His6-CAB1 [1] = biological target: T1, His6-CAB1 (Saccharomyces cerevisiae, UniProt Q04430); assay: Kinase-Glo luminescent assay; conditions: 10 µM compound, 100 µM pantothenate, 100 µM ATP, 10 mM MgCl2, pH 7.4, room temperature
T1 sequence (Q04430 1-367): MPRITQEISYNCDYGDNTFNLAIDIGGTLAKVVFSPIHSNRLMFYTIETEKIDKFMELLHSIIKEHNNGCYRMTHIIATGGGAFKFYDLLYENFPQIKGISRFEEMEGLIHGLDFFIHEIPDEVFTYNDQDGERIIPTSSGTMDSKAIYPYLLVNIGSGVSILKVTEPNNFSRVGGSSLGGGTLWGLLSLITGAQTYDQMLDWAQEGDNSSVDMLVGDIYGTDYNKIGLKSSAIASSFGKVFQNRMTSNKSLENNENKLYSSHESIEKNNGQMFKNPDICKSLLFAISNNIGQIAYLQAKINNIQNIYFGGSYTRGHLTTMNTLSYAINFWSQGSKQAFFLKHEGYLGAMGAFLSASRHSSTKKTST

His6-CAB1 [2] = biological target: T1, His6-CAB1; assay: Kinase-Glo ATP depletion and LC-MS of phosphorylated product; conditions: 10 µM compound, 100 µM ATP, no pantothenate, 10 mM MgCl2, pH 7.4, room temperature
Cab1p (yeast PanK) = biological target: T2, Cab1p (yeast PanK) (Saccharomyces cerevisiae, UniProt Q04430); assay: radioactive pantothenate kinase assay, double reciprocal plots; conditions: competitive with pantothenate; 2.5 mM ATP, 2.5 mM MgCl2, pH 7.4, 30 °C; enzyme source for Ki not restated (yeast extract as for Km)
T2 construct: gene CAB1; native untagged enzyme in cell-free extract of wild-type yeast
T2 sequence (Q04430 1-367): T1 sequence (Q04430 1-367)

His6-CAB1 [3] = biological target: T3, His6-CAB1 (Saccharomyces cerevisiae, UniProt Q04430, G351S); assay: radioactive pantothenate kinase assay; conditions: 50 µM 14C-pantothenate, 2.5 mM ATP, 2.5 mM MgCl2, pH 7.4
T3 sequence (Q04430 1-367 G351S): T1 sequence (Q04430 1-367) with G351S

His6-CAB1 [4] = biological target: T1, His6-CAB1; assay: radioactive pantothenate kinase assay; conditions: 50 µM 14C-pantothenate, 2.5 mM ATP, 2.5 mM MgCl2, pH 7.4

Ki (Cab1p (yeast PanK)) [µM] | SMILES | inhibition at 10 μM (His6-CAB1 [1]) | Kinase-Glo ATP depletion and LC-MS of phosphorylated product (His6-CAB1 [2]) | relative enzyme activity (His6-CAB1 [3]) | relative enzyme activity (His6-CAB1 [4])
– | CSc1cccc(NC(=O)CCc2c(C)nc3c4cccnc4nn3c2C)c1 [NED7, 3-(2,4-dimethylpyrido-[2′,3′:3,4]pyrazolo[1,5-a]pyrimidin-3-yl)-N-(3-(methylthio)phenyl) propanamide] | resulted in increased luciferase activity in the presence of Cab1 | – | – | –
10.1 ± 0.85 | CC(CNC(=O)[C@H](O)C(C)(C)CO)C(=O)NCCc1ccccc1 (stereo partly drawn) [α-PanAm, (2 R)-2,4-dihydroxy-3,3-dimethyl-N-(2-methyl-3-oxo-3-(phenethylamino)propyl)butanamide] | – | detected the mass of phosphorylated α-PanAm (P-α-PanAm) in the presence of active Cab1 | PanK activities of purified His6-CAB1 and His6-cab1^G351S mutant proteins were measured | PanK activities of purified His6-CAB1 and His6-cab1^G351S mutant proteins were measured
